Reference: patent US9809598B2 (Merck Patent GmbH, priority 2014, dated 2017)

How the values were obtained:
TNKS2 = molecular target: T1, TNKS2 (Homo sapiens, UniProt Q9H2K2); assay: TNKS2 activity ELISA (autoparsylation assay); format: biochemical; details: GST-tagged Tnks-2 (873-1166 aa); read-out: IC50 [M] TNKS2 ELISA
T1 construct: GST-tagged Tnks-2 (873-1166 aa, prepared in-house); made in house
In short: (§1)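 GST-tagged TNKS1 or TNKS2 captured on glutathione plates and allowed to auto-PARsylate with biotinylated NAD with or without compound. Biotin-ADP-ribosylated enzyme detected by streptavidin-HRP and luminescence; IC50 relative to inhibitor-free reaction.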

Tankyrases = details: read-out: EC50 [M] TNKS cellular assay; DLD1 cells, 24 hours, Axin2 increase
TNKS1 = molecular target: T2, TNKS1 (Homo sapiens, UniProt O95271); assay: TNKS1 activity ELISA (autoparsylation assay); format: biochemical; details: GST-tagged Tnks-1 (1023-1327 aa)
T2 construct: GST-tagged Tnks-1 (1023-1327 aa, prepared in-house); made in house
In short: as §1

PARP-1 = molecular target: T3, PARP-1 (Homo sapiens, UniProt P09874); assay: PARP-1 autoparsylation assay (HTRF); format: biochemical; details: His-tagged Parp-1, autoparsylation HTRF
T3 construct: purchased Enzo Life Sciences GmbH, Lörrach, Germany
In short: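 His-tagged enzyme auto-modifies itself using biotinylated NAD/NAD; product detected by TR-FRET between cryptate anti-His antibody and Xlent-streptavidin, as emission ratio.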

T2 sequence (O95271 1023-1327): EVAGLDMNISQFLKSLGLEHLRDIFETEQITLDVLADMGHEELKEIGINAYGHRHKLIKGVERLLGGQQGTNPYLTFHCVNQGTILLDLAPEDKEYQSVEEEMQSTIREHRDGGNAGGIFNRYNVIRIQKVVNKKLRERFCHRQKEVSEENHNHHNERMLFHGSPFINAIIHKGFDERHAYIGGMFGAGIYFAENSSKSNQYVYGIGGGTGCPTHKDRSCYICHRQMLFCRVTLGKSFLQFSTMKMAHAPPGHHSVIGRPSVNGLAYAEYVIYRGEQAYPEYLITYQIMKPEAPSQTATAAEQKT
T3 sequence (P09874 whole entry): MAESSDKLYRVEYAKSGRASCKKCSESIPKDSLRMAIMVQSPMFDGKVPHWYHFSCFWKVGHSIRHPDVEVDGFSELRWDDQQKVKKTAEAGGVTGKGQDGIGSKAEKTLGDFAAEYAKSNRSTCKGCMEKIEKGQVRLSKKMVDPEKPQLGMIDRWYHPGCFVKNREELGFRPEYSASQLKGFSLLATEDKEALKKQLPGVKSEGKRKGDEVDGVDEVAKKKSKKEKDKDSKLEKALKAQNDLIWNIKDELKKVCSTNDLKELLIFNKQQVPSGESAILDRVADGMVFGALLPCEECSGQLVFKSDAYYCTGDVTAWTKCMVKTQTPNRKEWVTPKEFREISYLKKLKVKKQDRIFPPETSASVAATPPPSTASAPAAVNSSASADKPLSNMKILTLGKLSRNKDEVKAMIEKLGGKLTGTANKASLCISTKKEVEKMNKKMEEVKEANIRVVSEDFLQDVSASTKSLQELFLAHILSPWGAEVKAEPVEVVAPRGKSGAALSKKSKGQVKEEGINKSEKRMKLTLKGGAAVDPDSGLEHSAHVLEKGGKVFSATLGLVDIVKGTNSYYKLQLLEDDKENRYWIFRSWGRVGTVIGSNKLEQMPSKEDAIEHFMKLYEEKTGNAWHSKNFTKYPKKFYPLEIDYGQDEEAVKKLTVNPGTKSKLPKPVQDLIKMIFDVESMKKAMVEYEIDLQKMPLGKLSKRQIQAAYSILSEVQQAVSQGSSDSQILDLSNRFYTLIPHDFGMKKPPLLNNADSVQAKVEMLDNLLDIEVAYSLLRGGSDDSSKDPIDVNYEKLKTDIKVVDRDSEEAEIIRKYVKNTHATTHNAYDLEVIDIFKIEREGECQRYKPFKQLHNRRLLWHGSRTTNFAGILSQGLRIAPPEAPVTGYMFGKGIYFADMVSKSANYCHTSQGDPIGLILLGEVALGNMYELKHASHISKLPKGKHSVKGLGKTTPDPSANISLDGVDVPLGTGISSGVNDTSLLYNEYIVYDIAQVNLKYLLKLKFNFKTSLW
T1 sequence (Q9H2K2 873-1166): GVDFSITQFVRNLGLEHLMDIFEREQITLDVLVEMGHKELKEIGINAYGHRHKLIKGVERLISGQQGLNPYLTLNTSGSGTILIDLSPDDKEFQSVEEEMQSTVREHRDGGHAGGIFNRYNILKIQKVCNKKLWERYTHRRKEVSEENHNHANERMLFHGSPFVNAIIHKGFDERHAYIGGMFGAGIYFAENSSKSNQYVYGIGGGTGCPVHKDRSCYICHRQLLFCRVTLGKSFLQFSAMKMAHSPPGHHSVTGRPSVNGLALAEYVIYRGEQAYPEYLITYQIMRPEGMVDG

Compound: Cn1ccc2c(=O)[nH]c(CCCC(=O)N3CCC(c4nnc(-c5ccccc5)o4)CC3)nc21 [Compound C184, 7-Methyl-2-{4-oxo-4-[4-(5-phenyl-[1,3,4]oxadiazol-2-yl)-piperidin-1-yl]-butyl}-3,7-dihydro-pyrrolo[2,3-d]pyrimidin-4-one]
- IC50 (TNKS2): 2.5e-09 M
- EC50 (Tankyrases): 4.7e-07 M
- IC50 (TNKS1): 4.7 nM
- IC50 (PARP-1): 1900 nM

Compound: Cn1ccc2c(=O)[nH]c(CCCC(=O)N3CCC(C(=O)c4ccc(F)cc4)CC3)nc21 [Compound C186, 2-{4-[4-(4-Fluoro-benzoyl)-piperidin-1-yl]-4-oxo-butyl}-7-methyl-3,7-dihydro-pyrrolo[2,3-d]pyrimidin-4-one]
- IC50 (TNKS2): 1.9e-09 M
- EC50 (Tankyrases): 1.4e-08 M
- IC50 (TNKS1): 0.41 nM
- IC50 (PARP-1): 1200 nM

Compound: Cn1cc(C(=O)C2CCN(C(=O)CCCc3nc4c(ccn4C)c(=O)[nH]3)CC2)cn1 [Compound C190, 7-Methyl-2-{4-[4-(1-methyl-1H-pyrazole-4-carbonyl)-piperidin-1-yl]-4-oxo-butyl}-3,7-dihydro-pyrrolo[2,3-d]pyrimidin-4-one]
- IC50 (TNKS2): 3.2e-10 M
- EC50 (Tankyrases): 1.9e-07 M
- IC50 (TNKS1): 0.71 nM
- IC50 (PARP-1): 870 nM

Compound: COc1ccc(C(=O)C2CCN(C(=O)CCCc3nc4c(c(=O)[nH]3)COCC4)CC2)cc1F [Compound C192, 2-{4-[4-(3-Fluoro-4-methoxy-benzoyl)-piperidin-1-yl]-4-oxo-butyl}-3,5,7,8-tetrahydro-pyrano[4,3-d]pyrimidin-4-one]
- IC50 (TNKS2): 2.1e-09 M
- EC50 (Tankyrases): 4.9e-08 M
- IC50 (TNKS1): 5.6 nM
- IC50 (PARP-1): 12000 nM

Compound: COc1ccc(C(=O)C2CCN(C(=O)CCCc3nc4c(c(=O)[nH]3)COCC4)CC2)cn1 [Compound C193, 2-{4-[4-(6-Methoxy-pyridine-3-carbonyl)-piperidin-1-yl]-4-oxo-butyl}-3,5,7,8-tetrahydro-pyrano[4,3-d]pyrimidin-4-one]
- IC50 (TNKS2): 2.6e-09 M
- EC50 (Tankyrases): 1e-07 M
- IC50 (TNKS1): 7.4 nM
- IC50 (PARP-1): 8000 nM

Compound: N#Cc1cc(C2CCN(C(=O)CCCc3nc4c(c(=O)[nH]3)COCC4)CC2)cnc1N [Compound C194, 6-Amino-1′-[4-(4-oxo-3,5,7,8-tetrahydro-4H-pyrano[4,3-d]pyrimidin-2-yl)-butyryl]-1′,2′,3′,4′,5′,6′-hexahydro-[3,4′]bipyridinyl-5-carbonitrile]
- IC50 (TNKS2): 4.5e-09 M
- EC50 (Tankyrases): 3.1e-06 M
- IC50 (TNKS1): 15 nM
- IC50 (PARP-1): 4900 nM

Compound: Nc1ncc(C2CCN(C(=O)CCCc3nc4c(c(=O)[nH]3)COCC4)CC2)cc1-c1ncccn1 [Compound C195, 2-[4-(6-Amino-5-pyrimidin-2-yl-3′,4′,5′,6′-tetrahydro-2′H-[3,4′]bipyridinyl-1′-yl)-4-oxo-butyl]-3,5,7,8-tetrahydro-pyrano[4,3-d]pyrimidin-4-one]
- IC50 (TNKS2): 6.8e-10 M
- EC50 (Tankyrases): 3.5e-08 M
- IC50 (TNKS1): 2.1 nM
- IC50 (PARP-1): 3300 nM

Compound: N#Cc1ccc(OC2CCN(C(=O)CCCc3nc4c(c(=O)[nH]3)COCC4)CC2)cc1 [Compound C197, 4-{1-[4-(4-Oxo-3,5,7,8-tetrahydro-4H-pyrano[4,3-d]pyrimidin-2-yl)-butyryl]-piperidin-4-yloxy}-benzonitrile]
- IC50 (TNKS2): 2.4e-07 M
- EC50 (Tankyrases): 3.6e-06 M
- IC50 (TNKS1): 560 nM
- IC50 (PARP-1): 3200 nM

Compound: O=C(c1ccc(F)cc1)C1CCN(C(=O)CCCc2nc3c(c(=O)[nH]2)COCC3)CC1 [Compound C198, 2-{4-[4-(4-Fluoro-benzoyl)-piperidin-1-yl]-4-oxo-butyl}-3,5,7,8-tetrahydro-pyrano[4,3-d]pyrimidin-4-one]
- IC50 (TNKS2): 4e-09 M
- EC50 (Tankyrases): 7.5e-08 M
- IC50 (TNKS1): 12 nM
- IC50 (PARP-1): 5200 nM

Compound: Cn1cc(C(=O)C2CCN(C(=O)CCCc3nc4c(c(=O)[nH]3)COCC4)CC2)cn1 [Compound C202, 2-{4-[4-(1-Methyl-1H-pyrazole-4-carbonyl)-piperidin-1-yl]-4-oxo-butyl}-3,5,7,8-tetrahydro-pyrano[4,3-d]pyrimidin-4-one]
- IC50 (TNKS2): 3.1e-09 M
- EC50 (Tankyrases): 2.2e-06 M
- IC50 (TNKS1): 8.1 nM
- IC50 (PARP-1): 18000 nM

Compound: Cc1cc2c(=O)[nH]c(CCCC(=O)N3CCC(C(=O)c4cnn(C)c4)CC3)cn2n1 [Compound C209, 2-Methyl-6-{4-[4-(1-methyl-1H-pyrazole-4-carbonyl)-piperidin-1-yl]-4-oxo-butyl}-5H-pyrazolo[1,5-a]pyrazin-4-one]
- IC50 (TNKS2): 7.9e-10 M
- EC50 (Tankyrases): 1e-08 M
- IC50 (TNKS1): 0.76 nM
- IC50 (PARP-1): 8500 nM

Compound: CC(C)n1cc(C(=O)C2CCN(C(=O)CCCc3cn4cccc4c(=O)[nH]3)CC2)cn1 [Compound C210, 3-{4-[4-(1-Isopropyl-1H-pyrazole-4-carbonyl)-piperidin-1-yl]-4-oxo-butyl}-2H-pyrrolo[1,2-a]pyrazin-1-one]
- IC50 (TNKS2): 3.2e-10 M
- EC50 (Tankyrases): 3.6e-09 M
- IC50 (TNKS1): 0.38 nM
- IC50 (PARP-1): 7500 nM

Compound: CCn1cc(C(=O)C2CCN(C(=O)CCCc3nc4c(cnn4C)c(=O)[nH]3)CC2)cn1 [Compound C213, 6-{4-[4-(1-Ethyl-1H-pyrazole-4-carbonyl)-piperidin-1-yl]-4-oxo-butyl}-1-methyl-1,5-dihydro-pyrazolo[3,4-d]pyrimidin-4-one]
- IC50 (TNKS2): 5.2e-10 M
- EC50 (Tankyrases): 8.6e-08 M
- IC50 (TNKS1): 1.2 nM
- IC50 (PARP-1): 11000 nM

Compound: CCn1cc(C(=O)C2CCN(C(=O)CCCc3nn4cc(F)cc4c(=O)[nH]3)CC2)cn1 [Compound C215, 2-{4-[4-(1-Ethyl-1H-pyrazole-4-carbonyl)-piperidin-1-yl]-4-oxo-butyl}-6-fluoro-3H-pyrrolo[2,1-f][1,2,4]triazin-4-one]
- IC50 (TNKS2): 1.4e-09 M
- EC50 (Tankyrases): 1.8e-08 M
- IC50 (TNKS1): 1.5 nM
- IC50 (PARP-1): 5000 nM

Compound: CCn1cc(C(=O)C2CCN(C(=O)CCCc3nc4c(C)scc4c(=O)[nH]3)CC2)cn1 [Compound C216, 2-{4-[4-(1-Ethyl-1H-pyrazole-4-carbonyl)-piperidin-1-yl]-4-oxo-butyl}-7-methyl-3H-thieno[3,4-d]pyrimidin-4-one]
- IC50 (TNKS2): 1.3e-09 M
- EC50 (Tankyrases): 5.2e-08 M
- IC50 (TNKS1): 2.5 nM
- IC50 (PARP-1): 1500 nM

Compound: Cc1cc2c(=O)[nH]c(CCCC(=O)N3CCC(C(=O)c4cnn(C(C)C)c4)CC3)cn2n1 [Compound C217, 6-{4-[4-(1-Isopropyl-1H-pyrazole-4-carbonyl)-piperidin-1-yl]-4-oxo-butyl}-2-methyl-5H-pyrazolo[1,5-a]pyrazin-4-one]
- IC50 (TNKS2): 2.7e-09 M
- EC50 (Tankyrases): 3e-08 M
- IC50 (TNKS1): 2 nM
- IC50 (PARP-1): 6600 nM

Compound: CC(C)n1cc(C(=O)C2CCN(C(=O)CCCc3nn4cccc4c(=O)[nH]3)CC2)cn1 [Compound C219, 2-{4-[4-(1-Isopropyl-1H-pyrazole-4-carbonyl)-piperidin-1-yl]-4-oxo-butyl}-3H-pyrrolo[2,1-f][1,2,4]triazin-4-one]
- IC50 (TNKS2): 1.2e-09 M
- EC50 (Tankyrases): 2.4e-08 M
- IC50 (TNKS1): 2 nM
- IC50 (PARP-1): 25000 nM

Compound: Cc1cc2c(=O)[nH]c(CCCC(=O)N3CCC(C(=O)c4cnn(C(C)C)c4)CC3)nn2c1 [Compound C220, 2-{4-[4-(1-Isopropyl-1H-pyrazole-4-carbonyl)-piperidin-1-yl]-4-oxo-butyl}-6-methyl-3H-pyrrolo[2,1-f][1,2,4]triazin-4-one]
- IC50 (TNKS2): 3.7e-09 M
- EC50 (Tankyrases): 4e-08 M
- IC50 (TNKS1): 4.2 nM
- IC50 (PARP-1): 6200 nM

Compound: CC(C)n1cc(C(=O)C2CCN(C(=O)CCCc3nn4cc(F)cc4c(=O)[nH]3)CC2)cn1 [Compound C221, 6-Fluoro-2-{4-[4-(1-isopropyl-1H-pyrazole-4-carbonyl)-piperidin-1-yl]-4-oxo-butyl}-3H-pyrrolo[2,1-f][1,2,4]triazin-4-one]
- IC50 (TNKS2): 2e-09 M
- EC50 (Tankyrases): 2.7e-08 M
- IC50 (TNKS1): 2.1 nM
- IC50 (PARP-1): 1900 nM
